This is an account of results in paper PMC10861955 (Heliyon, 2024).

A word on the IC50: it is the concentration at which inhibition is half-maximal.

For this assay, the target named is T1, Helicobacter pylori inosine 5′-monophosphate dehydrogenase (HpIMPDH) (Helicobacter pylori, UniProt P56088).
T1 sequence (P56088 1-481): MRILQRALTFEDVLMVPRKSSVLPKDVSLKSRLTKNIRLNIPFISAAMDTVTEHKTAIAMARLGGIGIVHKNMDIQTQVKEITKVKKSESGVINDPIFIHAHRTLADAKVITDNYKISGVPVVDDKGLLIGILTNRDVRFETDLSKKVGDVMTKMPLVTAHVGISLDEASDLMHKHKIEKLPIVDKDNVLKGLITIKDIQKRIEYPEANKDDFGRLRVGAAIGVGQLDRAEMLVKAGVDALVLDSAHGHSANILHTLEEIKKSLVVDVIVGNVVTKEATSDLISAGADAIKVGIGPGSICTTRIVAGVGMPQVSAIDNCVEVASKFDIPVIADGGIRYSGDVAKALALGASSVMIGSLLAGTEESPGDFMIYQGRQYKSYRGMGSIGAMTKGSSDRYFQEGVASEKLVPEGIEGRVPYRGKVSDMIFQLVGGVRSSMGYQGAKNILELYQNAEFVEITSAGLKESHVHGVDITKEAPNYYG
As to the kind of experiment: fluorescence assay of NADH formation, […] HpIMPDH. It counts as biochemical.

Structures are written as SMILES.

`COc1c2occc2cc2ccc(=O)oc12` [Compound 2, xanthotoxin] came in with an IC50 of 2.8 µM. This counts as single-digit micromolar.

As to `COc1cc(OC)c2ccc(=O)oc2c1` [Compound 3, 5,7-di-methoxy-2H-chromen-2-one], the IC50 was 2.4 µM.
